Laboratory results as given in article PMC3549684 (Bioorganic & medicinal chemistry letters, 2012).

Tests used:
[1] = tested on: serine hydrolases detected in mouse brain; format: biochemical; conditions: FP-Rh, concentrations up to 10 µM
[2] = tested on: other detected serine hydrolase activities in the PC3 cell proteome; test: competitive ABPP with FP-Rh in PC3 cell proteome, selectivity; format: biochemical, human; conditions: FP-Rh probe
[3] = tested on: other ~40 serine hydrolases detected in PC3 cells; test: ABPP-SILAC of inhibitor-treated PC3 cells in situ, other serine hydrolases; format: cell-based, human; conditions: 100 nM, 4 hours
[4] = tested on: ApoE-deficient mice; conditions: cited from earlier work
[5] = tested on: diabetic and hypercholesterolemic swine; conditions: cited from earlier work
[6] = tested on: human patients with coronary heart disease; conditions: cited from earlier work
[7] = target: T1, recombinant mouse Lp-PLA2 (Mus musculus, UniProt Q60963); conditions: previously shown; cited from earlier work
T1 sequence (Q60963 22-440): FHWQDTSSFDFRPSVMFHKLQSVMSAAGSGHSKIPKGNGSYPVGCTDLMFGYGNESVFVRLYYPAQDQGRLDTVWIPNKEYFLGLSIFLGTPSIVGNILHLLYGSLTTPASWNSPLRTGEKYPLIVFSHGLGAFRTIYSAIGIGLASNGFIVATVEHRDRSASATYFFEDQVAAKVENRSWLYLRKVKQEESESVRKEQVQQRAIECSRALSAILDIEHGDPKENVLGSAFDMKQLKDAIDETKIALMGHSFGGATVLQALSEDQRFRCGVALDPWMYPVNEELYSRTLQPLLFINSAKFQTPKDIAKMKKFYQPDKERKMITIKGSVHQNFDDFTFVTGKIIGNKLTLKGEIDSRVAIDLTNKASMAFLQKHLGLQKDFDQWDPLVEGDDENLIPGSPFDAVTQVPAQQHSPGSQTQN

Row | SMILES | cross-reactivity with other serine hydrolases [1] | inhibition of other detected serine hydrolase activities [2] | effect on other ~40 serine hydrolases in situ [3] | atherosclerotic plaque formation [4] | plasma Lp-PLA2 activity [4] | atherosclerotic plaque formation [5] | plasma Lp-PLA2 activity [5] | atherosclerotic plaque formation [6] | plasma Lp-PLA2 activity [6] | inhibition of mouse Lp-PLA2 [7]
1 | CCN(CC)CCN(Cc1ccc(-c2ccc(C(F)(F)F)cc2)cc1)C(=O)Cn1c(SCc2ccc(F)cc2)nc(=O)c2c1CCC2 [darapladib] | neither darapladib nor JMN4 cross-reacted | not inhibited | not affecting any | significantly decrease | significantly decrease | significantly decrease | significantly decrease | significantly decrease | significantly decrease | 
2 | CCCCCCCCCCC[C@@H](C[C@@H]1OC(=O)[C@H]1CCCCCC)OC(=O)[C@H](CC(C)C)NC=O [THL, tetrahydrolipstatin] |  |  |  |  |  |  |  |  |  | inhibited
